The numbers were not newly measured in patent US20080254098A1, “Neural tube birth defect reduction with folic acid delivery in catamenial hygiene products” (priority 2007, published 2008), which cites them from elsewhere.

The conditions of data set [1]: Norway; daily folic acid supplements of 0.4 mg or more.
For data set [2] the following is noted: red blood cell folate.
For data set [3] the following is noted: basis of the recommended daily intake of 2 mcg to 3 mcg.

For `Nc1nc2ncc(CNc3ccc(C(=O)N[C@@H](CCC(=O)O)C(=O)O)cc3)nc2c(=O)[nH]1` [folic acid], in data set [1], the “reduction of risk of cleft lip, with or without cleft palate” value was 40%. In data set [2], the biological half-life entry is reported as “approximately 8 weeks”. For the same molecule, where the note is “Nova Scotia, Canada, 1998-2000, after fortification began in 1998, 2.58 per 1000 in 1991-1997 before it”, the “births with neural tube defects” value is reported as 1.17 per 1,000. The “percent of women with one previous neural tube defect pregnancy who had a lower risk of another child with this birth defect” value (Wald 1991, prescription doses of folic acid versus placebo) is listed as 72%. Moreover, the “reduction of incidence of neural tube defects by adequate supplementing with folic acid” value (current estimate, depends on local dietary habits and ethnicity) is 50%-70%.

cyanocobalamin [vitamin B12]: the absorption rate in data set [3] is given as 50%.
